In patent US6172102A, “Pyrrole derivatives and medicinal composition” (Nippon Shinyaku Co., Ltd., priority 1995, dated 2001):

Tested on: urinary bladder
Assay: Cystometrography (rats): bladder capacity after intraduodenal administration
Type: in vivo
Conditions: female SD rats, urethane anesthesia, max of 0.5, 1, 2, 3 h, mean
Experimental: Cystometrography is a method for ascertaining the relation between intravesical pressure and bladder capacity and provides information on the time course of condition of the urinary bladder from urine filling to micturition, the possible involuntary contraction of the urinary bladder, and the contractility of the detrusor muscle during micturition.
The experiment was performed using 9 to 13-weeks old female SD rats in groups of 3-5. After a median incision was made in the abdominal region under urethane anesthesia, a polyethylene indwelling cannula was inserted into the urinary bladder dome through the apex of the urinary bladder and fixed. The other end of the cannula was connected to a T-tube for infusion of saline via one branch and changes in intravesical pressure were recorded via the other branch. When warmed saline was continuously infused into the urinary bladder at a constant rate, the urinary bladder was distended and, when the pressure reached a threshold, the urinary bladder underwent rapid contractions and at the same time a micturition was induced. This procedure was repeated until the volume of saline from the start of infusion to the threshold intravesical pressure (bladder capacity) became steady giving approximately constant values in at least two consecutive determinations. Then, the test compound was administered into the duodenum. The bladder capacity was measured immediately before administration of the test compound and 0.5, 1, 2, and 3 hours after administration. The maximum increase rate (%) in bladder capacity was calculated by means of the following equation.
Maximum increase rate in bladder capacity=[(A-B)/B]×100
where B represents the bladder capacity value immediately before administration of the test compound and A represents the maximum bladder capacity at 0.5, 1, 2, and 3 hours after administration of the test compound. The data shown are mean values.

## CCCOC(C(=O)OC1CCN(C)CC1)(c1ccccc1)c1ccccc1 [Propiverine, propiverine, reference compound]
100 mg/kg
  Maximum increase rate (%) in bladder capacity: 42.0%

## Cc1c(-c2ccccc2)[nH]c(N)c1C#N [R1, 2-Amino-3-cyano-4-methyl-5-phenylpyrrole, reference compound]
3 mg/kg
  Maximum increase rate (%) in bladder capacity: 63.6%

## Cc1c(-c2ccccc2F)[nH]c(N)c1C#N [compound 1, 2-Amino-3-cyano-4-methyl-5-(2-fluorophenyl)pyrrole]
3 mg/kg
  Maximum increase rate (%) in bladder capacity: 60.8%

## Cc1c(-c2cccnc2)[nH]c(N)c1C#N [compound 8, 2-Amino-3-cyano-4-methyl-5-(3-pyridyl)pyrrole]
30 mg/kg
  Maximum increase rate (%) in bladder capacity: 55.4%

## N#Cc1cc(-c2ccccc2)[nH]c1N [compound 15]
10 mg/kg
  Maximum increase rate (%) in bladder capacity: 53.8%

## N#Cc1cc(-c2ccc(F)cc2)[nH]c1N [compound 41]
10 mg/kg
  Maximum increase rate (%) in bladder capacity: 38.8%

## Cc1c(-c2cc(F)ccc2F)[nH]c(N)c1C#N [compound 63, 2-Amino-3-cyano-4-methyl-5-(2,5-difluorophenyl)pyrrole]
3 mg/kg
  Maximum increase rate (%) in bladder capacity: 49.9%
